Test results: ChEMBL document CHEMBL1201862, “PubChem BioAssay data set” (2004)
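48-hour exposure; five concentrations; linearly interpolated endpoints. At the GI50, growth is halved.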 Activity calls are given as the source filed them. Cut-off read from the data, not from the text of the source: active = GI50 up to about 1.1 µM and inactive = higher.

Columns and labels:
Experiment in all cases: NCI-60 cell line screen, 48 h
786-0 = tested on: 786-0
A498 = tested on: A498
A549 = tested on: A549
ACHN = tested on: ACHN
CAKI-1 = tested on: CAKI-1
CCRF-CEM = tested on: CCRF-CEM
COLO 205 = tested on: COLO 205
DLD-1 = tested on: DLD-1
DMS-114 = tested on: DMS-114
DMS-273 = tested on: DMS-273
EKVX = tested on: EKVX
HCT-116 = tested on: HCT-116
HCT-15 = tested on: HCT-15
HL-60 = tested on: HL-60
HOP-18 = tested on: HOP-18
HOP-62 = tested on: HOP-62
HOP-92 = tested on: HOP-92
HT-29 = tested on: HT-29
IGROV-1 = tested on: IGROV-1
K562 = tested on: K562
KM-20L2 = tested on: KM-20L2
KM12 = tested on: KM12
LOX IMVI = tested on: LOX IMVI
LXFL 529 = tested on: LXFL 529
M14 = tested on: M14
M19-MEL = tested on: M19-MEL
MOLT-4 = tested on: MOLT-4
Malme-3M = tested on: Malme-3M
NCI-H226 = tested on: NCI-H226
NCI-H23 = tested on: NCI-H23
NCI-H460 = tested on: NCI-H460
NCI-H522 = tested on: NCI-H522
OVCAR-3 = tested on: OVCAR-3
OVCAR-4 = tested on: OVCAR-4
OVCAR-5 = tested on: OVCAR-5
OVCAR-8 = tested on: OVCAR-8
RPMI-8226 = tested on: RPMI-8226
RXF 393 = tested on: RXF 393
RXF 631 = tested on: RXF 631
SF-268 = tested on: SF-268
SF-295 = tested on: SF-295
SF-539 = tested on: SF-539
SK-MEL-28 = tested on: SK-MEL-28
SK-MEL-2 = tested on: SK-MEL-2
SK-MEL-5 = tested on: SK-MEL-5
SK-OV-3 = tested on: SK-OV-3
SN12C = tested on: SN12C
SNB-75 = tested on: SNB-75
SNB-78 = tested on: SNB-78
SR = tested on: SR
SW-620 = tested on: SW-620
TK-10 = tested on: TK-10
U-251 = tested on: U-251
UACC-257 = tested on: UACC-257
UACC-62 = tested on: UACC-62
UO-31 = tested on: UO-31
HCC 2998 = tested on: HCC 2998
SNB-19 = tested on: SNB-19

C[N+]1=c2c3cccc4cccc(c(=O)n2CC1)c43
GI50 (786-0): 25.8 µM (inactive)
GI50 (A498): 15.1 µM (inactive)
GI50 (A549): 22.4 µM (inactive)
GI50 (ACHN): 12.5 µM (inactive)
GI50 (CAKI-1): 23.1 µM (inactive)
GI50 (CCRF-CEM): 11.6 µM (inactive)
GI50 (COLO 205): 10.1 µM (inactive)
GI50 (DLD-1): 16.1 µM (inactive)
GI50 (DMS-114): 15.7 µM (inactive)
GI50 (DMS-273): 12.4 µM (inactive)
GI50 (EKVX): 29.4 µM (inactive)
GI50 (HCT-116): 4.68 µM (inactive)
GI50 (HCT-15): 22 µM
GI50 (HL-60): 20.9 µM (inactive)
GI50 (HOP-18): 21.6 µM (inactive)
GI50 (HOP-62): 22 µM (inactive)
GI50 (HOP-92): 24.7 µM (inactive)
GI50 (HT-29): 16.8 µM (inactive)
GI50 (IGROV-1): 21.9 µM (inactive)
GI50 (K562): 19 µM (inactive)
GI50 (KM-20L2): 15.7 µM (inactive)
GI50 (KM12): 18.3 µM (inactive)
GI50 (LOX IMVI): 5.81 µM (inactive)
GI50 (LXFL 529): 13.9 µM (inactive)
GI50 (M14): 14.9 µM (inactive)
GI50 (M19-MEL): 17.3 µM (inactive)
GI50 (MOLT-4): 3.37 µM (inactive)
GI50 (Malme-3M): 10.5 µM (inactive)
GI50 (NCI-H226): 13.1 µM (inactive)
GI50 (NCI-H23): 17.6 µM (inactive)
GI50 (NCI-H460): 11.5 µM (inactive)
GI50 (NCI-H522): 11.4 µM (inactive)
GI50 (OVCAR-3): 25.7 µM (inactive)
GI50 (OVCAR-4): 17.6 µM (inactive)
GI50 (OVCAR-5): 15.5 µM (inactive)
GI50 (OVCAR-8): 16.6 µM (inactive)
GI50 (RPMI-8226): 23.9 µM (inactive)
GI50 (RXF 393): 11.4 µM (inactive)
GI50 (RXF 631): 24.2 µM (inactive)
GI50 (SF-268): 12.3 µM (inactive)
GI50 (SF-295): 21.3 µM (inactive)
GI50 (SF-539): 14.6 µM (inactive)
GI50 (SK-MEL-28): 15.8 µM (inactive)
GI50 (SK-MEL-2): 19.6 µM (inactive)
GI50 (SK-MEL-5): 18.2 µM (inactive)
GI50 (SK-OV-3): 20.6 µM (inactive)
GI50 (SN12C): 18.1 µM (inactive)
GI50 (SNB-75): 21.8 µM (inactive)
GI50 (SNB-78): 14.2 µM (inactive)
GI50 (SR): 2.77 µM (inactive)
GI50 (SW-620): 11 µM (inactive)
GI50 (TK-10): 5.82 µM (inactive)
GI50 (U-251): 28.6 µM (inactive)
GI50 (UACC-257): 16.1 µM (inactive)
GI50 (UACC-62): 17.5 µM (inactive)
GI50 (UO-31): 12.3 µM (inactive)

CC1=NN(C(=O)c2cc(Cl)cc([N+](=O)[O-])c2)C(=O)C1/N=N/c1ccccc1C(=O)O (stereo unspecified)
GI50 (786-0): > 100 µM (inactive)
GI50 (A498): > 100 µM (inactive)
GI50 (A549): > 100 µM (inactive)
GI50 (ACHN): > 100 µM (inactive)
GI50 (CAKI-1): > 100 µM (inactive)
GI50 (CCRF-CEM): > 100 µM (inactive)
GI50 (COLO 205): > 100 µM (inactive)
GI50 (DLD-1): > 100 µM (inactive)
GI50 (DMS-273): > 100 µM (inactive)
GI50 (EKVX): > 100 µM (inactive)
GI50 (HCC 2998): > 100 µM (inactive)
GI50 (HCT-116): > 100 µM (inactive)
GI50 (HL-60): > 100 µM (inactive)
GI50 (HOP-18): > 100 µM (inactive)
GI50 (HT-29): > 100 µM (inactive)
GI50 (IGROV-1): > 100 µM (inactive)
GI50 (K562): > 100 µM (inactive)
GI50 (KM12): > 100 µM (inactive)
GI50 (LXFL 529): > 100 µM (inactive)
GI50 (M19-MEL): > 100 µM (inactive)
GI50 (MOLT-4): > 100 µM (inactive)
GI50 (Malme-3M): > 100 µM (inactive)
GI50 (NCI-H226): > 100 µM (inactive)
GI50 (NCI-H23): > 100 µM (inactive)
GI50 (NCI-H460): > 100 µM (inactive)
GI50 (NCI-H522): 36.6 µM (inactive)
GI50 (OVCAR-3): > 100 µM (inactive)
GI50 (OVCAR-5): > 100 µM (inactive)
GI50 (OVCAR-8): > 100 µM (inactive)
GI50 (RPMI-8226): > 100 µM (inactive)
GI50 (RXF 393): > 100 µM (inactive)
GI50 (RXF 631): > 100 µM (inactive)
GI50 (SF-268): > 100 µM (inactive)
GI50 (SF-295): > 100 µM (inactive)
GI50 (SF-539): > 100 µM (inactive)
GI50 (SK-MEL-28): > 100 µM (inactive)
GI50 (SK-MEL-2): > 100 µM (inactive)
GI50 (SK-MEL-5): > 100 µM (inactive)
GI50 (SK-OV-3): > 100 µM (inactive)
GI50 (SN12C): > 100 µM (inactive)
GI50 (SNB-19): > 100 µM (inactive)
GI50 (SNB-75): 75.2 µM (inactive)
GI50 (SNB-78): > 100 µM (inactive)
GI50 (SR): > 100 µM (inactive)
GI50 (SW-620): > 100 µM (inactive)
GI50 (TK-10): > 100 µM (inactive)
GI50 (U-251): > 100 µM (inactive)
GI50 (UACC-257): > 100 µM (inactive)
GI50 (UACC-62): 69.5 µM (inactive)
GI50 (UO-31): > 100 µM (inactive)
